Reference: PubChem BioAssay AID1963959 (Molecular Pharmacology Branch, DTP, NCI, 2024)

Test system: T-47D spheroids with HUVEC/MSC, viability
Assay: Anticancer human tumor T-47D cell line growth inhibition [PI3K];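 also: spheroids exposed to agents for seven days before reading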;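 as to viability, T/C: percent of DMSO vehicle control luminescence so 100% = untreated growth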
Conditions: for viability, T/C: stronger effect = lower value
Excerpt: Combinatorial screen of targeted agents with the PI3K inhibitors inavolisib, alpelisib, duvelisib, and copanlisib in multi-cell type tumor spheroids
A high-throughput screen of multi-cell type tumor spheroids was designed to identify active combinations of targeted small molecules and PI3K pathway inhibitors. Complex spheroids include a stromal component modeled by human endothelial cells (HUVEC) and fibroblasts modeled by human mesenchymal stem cells (MSCs). The concentration ranges selected for each drug and investigational agent were based upon clinically achievable concentrations if the clinical Cmax of the agent was known.
Compounds. The drugs and investigational agents: inavolisib (NSC800729), alpelisib (NSC765974), duvelisib (NSC772469), copanlisib (NSC816437), ipatasertib (NSC767898), afuresertib (NSC778305), talazoparib (NSC767125), sapanisertib (NSC764658), selumetinib (NSC741078), tovorafenib (DAY101, NSC766906), vemurafenib (NSC761431), ravoxertinib (NSC781343), sotorasib (NSC818433), MRTX1133 (NSC 836407), abemaciclib (NSC 768073), palbociclib (NSC758247), venetoclax (NSC 766270), SY5609 (NSC837396), enzalutamide (NSC755605), and darolutamide (NSC825331), were obtained from the National Cancer Institute (NCI) Developmental Therapeutics Program Chemical Repository. The FDA-approved anticancer drug set is available from the NCI Developmental Therapeutics Program. […] The stock solutions were prepared in dimethyl sulfoxide (DMSO, Sigma-Aldrich, St. Louis, MO, cat. D2650) at 800-fold the tested concentration and stored at -70 degrees C prior to their use. All drugs and investigational agents were tested over a range starting from a high concentration at or near the clinical Cmax and decreasing in half-log increments. If the clinical Cmax for an agent had not been determined, the highest concentration tested was 10 microM.
Cell Culture. All cells were maintained in an incubator at 37 degrees C and 5% CO2 with 95% humidity. The PDC lines were cultured according to standard operating procedures established by the NCI PDMR (https://pdmr.cancer.gov/sops/default.htm). All PDCs were thawed and cultured in Matrigel-coated flasks prepared with a working solution of 1X Ham's F-12 nutrient mix, without supplementation (Invitrogen, Waltham, MA, cat. 11765054), 100 U/mL penicillin-streptomycin (Invitrogen, cat. 15140122), and 2.5% Matrigel (Corning Inc., Corning, NY, cat. 354248) for the first three passages. The 354836-022-R-J1-PDC, 475296-252-R-J1-PDC, and 997726-040-R-J2-PDC lines were cultured in 6A media, which includes advanced DMEM/F-12 (Thermo Fisher Scientific, cat. 12634028), 10 mM HEPES (Thermo Fisher Scientific, cat. 15630080), 1X GlutaMAX supplement (Thermo Fisher Scientific, cat. 35050061), 0.1 mg/mL primocin (InvivoGen, San Diego, CA, cat. ant-pm-2), 10% defined fetal bovine serum, heat inactivated (HyClone Laboratories Inc., Logan, UT, cat. SH30070.03HI), 50% L-WRN conditioned media (ATCC, cat. CRL-3276), 1.25 mM N-Acetyl-L-cysteine (Sigma-Aldrich, cat. A9165), 10 mM nicotinamide (Sigma-Aldrich, cat. N0636), 1X B-27 supplement (Thermo Fisher Scientific, cat. 17504044), 1X N-2 supplement (Thermo Fisher Scientific, cat. 17502048), and 10 microM Y-27632 dihydrochloride (Tocris Bioscience, Bristol, United Kingdom, cat. 1254). The 624824-186-R-J2-PDC line was cultured in 6C/Colon 1B media, which includes all 6A media components plus 50 ng/mL human EGF recombinant protein (Thermo Fisher Scientific, cat. PHG0311). […]

[1] = curve of first compound, second compound 0.00316 µM
[2] = curve of first compound, second compound 0.01 µM
[3] = curve of first compound, second compound 0.0316 µM
[4] = curve of first compound, second compound 0.1 µM
[5] = curve of first compound, second compound 0.316 µM
[6] = curve of first compound, second compound 1 µM
[7] = second compound 0.00316 µM, first compound 0.000316 µM
[8] = second compound 0.00316 µM, first compound 0.001 µM
[9] = second compound 0.00316 µM, first compound 0.00316 µM
[10] = second compound 0.00316 µM, first compound 0.01 µM
[11] = second compound 0.00316 µM, first compound 0.0316 µM
[12] = second compound 0.00316 µM, first compound 0.1 µM
[13] = second compound 0.01 µM, first compound 0.000316 µM
[14] = second compound 0.01 µM, first compound 0.001 µM
[15] = second compound 0.01 µM, first compound 0.00316 µM
[16] = second compound 0.01 µM, first compound 0.01 µM
[17] = second compound 0.01 µM, first compound 0.0316 µM
[18] = second compound 0.01 µM, first compound 0.1 µM
[19] = second compound 0.0316 µM, first compound 0.000316 µM
[20] = second compound 0.0316 µM, first compound 0.001 µM
[21] = second compound 0.0316 µM, first compound 0.00316 µM
[22] = second compound 0.0316 µM, first compound 0.01 µM
[23] = second compound 0.0316 µM, first compound 0.0316 µM
[24] = second compound 0.0316 µM, first compound 0.1 µM
[25] = second compound 0.1 µM, first compound 0.000316 µM
[26] = second compound 0.1 µM, first compound 0.001 µM
[27] = second compound 0.1 µM, first compound 0.00316 µM
[28] = second compound 0.1 µM, first compound 0.01 µM
[29] = second compound 0.1 µM, first compound 0.0316 µM
[30] = second compound 0.1 µM, first compound 0.1 µM
[31] = second compound 0.316 µM, first compound 0.000316 µM
[32] = second compound 0.316 µM, first compound 0.001 µM
[33] = second compound 0.316 µM, first compound 0.00316 µM
[34] = second compound 0.316 µM, first compound 0.01 µM
[35] = second compound 0.316 µM, first compound 0.0316 µM
[36] = second compound 0.316 µM, first compound 0.1 µM
[37] = second compound 1 µM, first compound 0.000316 µM
[38] = second compound 1 µM, first compound 0.001 µM
[39] = second compound 1 µM, first compound 0.00316 µM
[40] = second compound 1 µM, first compound 0.01 µM
[41] = second compound 1 µM, first compound 0.0316 µM
[42] = second compound 1 µM, first compound 0.1 µM

**Q.** Which IC50 [1] does the source give for `CC(C)n1nc(-c2ccc3oc(N)nc3c2)c2c(N)ncnc21` + CC(Nc1ccc2c(c1)OCCn1cc(N3C(=O)OCC3C(F)F)nc1-2)C(N)=O here?
**A.** 69.5 nM

**Q.** And the IC50 [2]?
**A.** 59.6 nM

**Q.** And the IC50 [3]?
**A.** 51.4 nM

**Q.** And the IC50 [4]?
**A.** 28.4 nM

**Q.** And the IC50 [5]?
**A.** 5.64 nM

**Q.** And the IC50 [6]?
**A.** 2.28 nM

**Q.** And the viability, T/C [7]?
**A.** 112%

**Q.** What about the viability, T/C [8] of the same compound?
**A.** 98%

**Q.** What about the viability, T/C [9] of the same compound?
**A.** 110%

**Q.** What about the viability, T/C [10] of the same compound?
**A.** 91.2%

**Q.** What about the viability, T/C [11] of the same compound?
**A.** 88.6%

**Q.** What about the viability, T/C [12] of the same compound?
**A.** 33%

**Q.** And the viability, T/C [13]?
**A.** 89.2%

**Q.** And the viability, T/C [14]?
**A.** 97.4%

**Q.** And the viability, T/C [15]?
**A.** 94.4%

**Q.** And the viability, T/C [16]?
**A.** 83.2%

**Q.** What about the viability, T/C [17] of the same compound?
**A.** 72.5%

**Q.** What about the viability, T/C [18] of the same compound?
**A.** 32.2%

**Q.** What about the viability, T/C [19] of the same compound?
**A.** 94.6%

**Q.** What about the viability, T/C [20] of the same compound?
**A.** 101%

**Q.** What about the viability, T/C [21] of the same compound?
**A.** 84.5%

**Q.** And the viability, T/C [22]?
**A.** 82.4%

**Q.** And the viability, T/C [23]?
**A.** 70.5%

**Q.** And the viability, T/C [24]?
**A.** 25.5%

**Q.** And the viability, T/C [25]?
**A.** 76%

**Q.** And the viability, T/C [26]?
**A.** 90.8%

**Q.** What about the viability, T/C [27] of the same compound?
**A.** 89.9%

**Q.** And the viability, T/C [28]?
**A.** 71.1%

**Q.** What about the viability, T/C [29] of the same compound?
**A.** 48.5%

**Q.** What about the viability, T/C [30] of the same compound?
**A.** 17%

**Q.** And the viability, T/C [31]?
**A.** 68.2%

**Q.** What about the viability, T/C [32] of the same compound?
**A.** 65.1%

**Q.** And the viability, T/C [33]?
**A.** 56.5%

**Q.** And the viability, T/C [34]?
**A.** 41.8%

**Q.** What about the viability, T/C [35] of the same compound?
**A.** 29.9%

**Q.** And the viability, T/C [36]?
**A.** 5.87%

**Q.** And the viability, T/C [37]?
**A.** 57.6%

**Q.** What about the viability, T/C [38] of the same compound?
**A.** 56.2%

**Q.** And the viability, T/C [39]?
**A.** 47.9%

**Q.** What about the viability, T/C [40] of the same compound?
**A.** 34.4%

**Q.** And the viability, T/C [41]?
**A.** 18.8%

**Q.** And the viability, T/C [42]?
**A.** 3.47%

**Q.** With `CC(=O)c1c(C)c2cnc(Nc3ccc(N4CCNCC4)cn3)nc2n(C2CCCC2)c1=O` + CC(Nc1ccc2c(c1)OCCn1cc(N3C(=O)OCC3C(F)F)nc1-2)C(N)=O as the compound, how does the IC50 [1] read?
**A.** > 100 nM

**Q.** What about the IC50 [2] of the same compound?
**A.** > 100 nM

**Q.** What about the IC50 [3] of the same compound?
**A.** > 100 nM

**Q.** And the IC50 [4]?
**A.** > 100 nM

**Q.** What about the IC50 [5] of the same compound?
**A.** > 100 nM

**Q.** What about the IC50 [6] of the same compound?
**A.** < 0.316 nM

**Q.** And the viability, T/C [7]?
**A.** 92.1%

**Q.** What about the viability, T/C [8] of the same compound?
**A.** 90.5%

**Q.** And the viability, T/C [9]?
**A.** 82.9%

**Q.** What about the viability, T/C [10] of the same compound?
**A.** 95.3%

**Q.** And the viability, T/C [11]?
**A.** 64.4%

**Q.** And the viability, T/C [12]?
**A.** 86%

**Q.** And the viability, T/C [13]?
**A.** 83.8%

**Q.** And the viability, T/C [14]?
**A.** 121%

**Q.** What about the viability, T/C [15] of the same compound?
**A.** 71.9%

**Q.** What about the viability, T/C [16] of the same compound?
**A.** 75.3%

**Q.** And the viability, T/C [17]?
**A.** 78.6%

**Q.** And the viability, T/C [18]?
**A.** 69.8%

**Q.** And the viability, T/C [19]?
**A.** 70.1%

**Q.** And the viability, T/C [20]?
**A.** 85.8%

**Q.** What about the viability, T/C [21] of the same compound?
**A.** 76.1%

**Q.** And the viability, T/C [22]?
**A.** 83.6%

**Q.** And the viability, T/C [23]?
**A.** 69.8%

**Q.** And the viability, T/C [24]?
**A.** 67.1%

**Q.** What about the viability, T/C [25] of the same compound?
**A.** 84.7%

**Q.** What about the viability, T/C [26] of the same compound?
**A.** 89.8%

**Q.** And the viability, T/C [27]?
**A.** 76%

**Q.** What about the viability, T/C [28] of the same compound?
**A.** 65.7%

**Q.** And the viability, T/C [29]?
**A.** 77%

**Q.** What about the viability, T/C [30] of the same compound?
**A.** 54.5%

**Q.** What about the viability, T/C [31] of the same compound?
**A.** 59.4%

**Q.** And the viability, T/C [32]?
**A.** 65.9%

**Q.** What about the viability, T/C [33] of the same compound?
**A.** 48.9%

**Q.** What about the viability, T/C [34] of the same compound?
**A.** 56.7%

**Q.** What about the viability, T/C [35] of the same compound?
**A.** 43.4%

**Q.** And the viability, T/C [36]?
**A.** 60.1%

**Q.** And the viability, T/C [37]?
**A.** 39.9%

**Q.** What about the viability, T/C [38] of the same compound?
**A.** 55.6%

**Q.** And the viability, T/C [39]?
**A.** 49.5%

**Q.** What about the viability, T/C [40] of the same compound?
**A.** 41%

**Q.** And the viability, T/C [41]?
**A.** 38.9%

**Q.** What about the viability, T/C [42] of the same compound?
**A.** 32.6%

**Q.** With `CC(Nc1ccc2c(c1)OCCn1cc(N3C(=O)OCC3C(F)F)nc1-2)C(N)=O` (centres undefined) as the compound, how does the viability, T/C (compound 0.00316 µM) read?
**A.** 95.1% [middle of 8 runs]

**Q.** And the viability, T/C (compound 0.0316 µM)?
**A.** 93.7% [middle of 8 runs]

**Q.** What about the viability, T/C (compound 0.316 µM) of the same compound?
**A.** 79.9% [middle of 8 runs]

**Q.** What about the viability, T/C (compound 1 µM) of the same compound?
**A.** 57.9% [middle of 8 runs]

**Q.** And the IC50 (compound alone, run of 04/24/2023)?
**A.** > 1000 nM
